Results on 45 compounds are retold here after patent US12128028B2, “Heterocyclic sulfonamide derivatives and pharmaceutical uses thereof” (METRION BIOSCIENCES LIMITED, priority 2018, dated 2024).

A word on the IC50: it is the concentration that inhibits the measured activity by half.

For the assay, the target named is human Kv1.3 (Homo sapiens (Human), UniProt P22001). Kind of assay: Kv1.3 potency evaluation, automated patch clamp electrophysiology (QPatch HT) in CHO-Kv1.3 cells. The class given is cell-based. Conditions: whole-cell QPatch HT, % inhibition of charge, step to +30 mV, four concentrations, N≥3 cells, read-out: hKv1.3 IC50. The essentials: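 Automated whole-cell patch clamp in CHO cells stably expressing human Kv1.3; steps from −80 to +30 mV (500 ms) at 0.067 Hz. Four cumulative concentrations after vehicle (0.1-0.3% DMSO); charge inhibition vs vehicle fitted by four-parameter logistic for IC50, N≥3 cells.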
Sequence of human Kv1.3 (P22001 whole entry): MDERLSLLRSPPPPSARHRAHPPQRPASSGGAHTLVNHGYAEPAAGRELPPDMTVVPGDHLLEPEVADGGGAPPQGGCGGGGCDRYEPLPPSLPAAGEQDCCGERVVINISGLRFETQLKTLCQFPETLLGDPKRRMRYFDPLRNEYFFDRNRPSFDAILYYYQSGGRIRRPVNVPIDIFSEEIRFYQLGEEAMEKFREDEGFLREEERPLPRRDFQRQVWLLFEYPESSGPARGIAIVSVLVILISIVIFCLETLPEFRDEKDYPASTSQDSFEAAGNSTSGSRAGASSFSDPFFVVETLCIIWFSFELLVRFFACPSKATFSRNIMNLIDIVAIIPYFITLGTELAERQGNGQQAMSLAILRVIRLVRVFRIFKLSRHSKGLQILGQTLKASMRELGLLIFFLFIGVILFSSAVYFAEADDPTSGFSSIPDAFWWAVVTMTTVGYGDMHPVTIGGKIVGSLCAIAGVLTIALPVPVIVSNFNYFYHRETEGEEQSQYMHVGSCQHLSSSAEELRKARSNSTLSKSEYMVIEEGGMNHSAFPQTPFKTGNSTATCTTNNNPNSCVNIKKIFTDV
Background: The patch-clamp technique gives a direct electrical read-out from membranes.
`CC(NC(=O)[C@@]1(C)CN=C(C23CC(N(Cc4ccc(C(F)(F)F)cc4)S(=O)(=O)c4ccc(F)cc4)(C2)C3)N1)C1CCC1` (mixture of isomers) [Example 275]: the IC50 was 571 nM. For `CC1(C)N=C(C23CC(N(Cc4ccc(Cl)cc4)S(=O)(=O)CC(F)(F)F)(C2)C3)N[C@H]1C(=O)NCCC(F)(F)F` (mixture of isomers) [Example 276] the value was 575 nM; for `C[C@]1(C(=O)NCCC2CCC2)CN=C(C23CC(N(Cc4ccc(C(F)(F)F)cc4)S(=O)(=O)c4ccc(F)cc4)(C2)C3)N1` (mixture of isomers) [Example 278], 595 nM. For `CC1(C)CC(NC(=O)[C@@]2(C)CN=C(C34CC(N(Cc5ccc(C(F)(F)F)cc5)S(=O)(=O)c5ccc(F)cc5)(C3)C4)N2)C1` (mixture of isomers) [Example 280] the value was 615 nM; for `CC1(C)N=C(C23CC(N(Cc4ccc(Cl)c(F)c4)S(=O)(=O)c4ccccc4)(C2)C3)N[C@H]1C(=O)N1CCC1` (mixture of isomers) [Example 282], 706 nM. For `CC1(C)N=C(C23CC(N(Cc4ccc(Cl)c(Cl)c4)S(=O)(=O)c4ccccc4)(C2)C3)N[C@H]1C(=O)N1CCC2(COC2)C1` (mixture of isomers) [Example 283] the value was 749 nM; for `C[C@@]1(C(=O)NCC2CCCCC2)CN=C(C23CC(N(Cc4ccc(C(F)(F)F)cc4)S(=O)(=O)c4ccc(F)cc4)(C2)C3)N1` (mixture of isomers) [Example 285], 802 nM.

As to `CC1(C)N=C(C23CC(N(Cc4ccc(Cl)cc4)S(=O)(=O)c4cc(C(F)(F)F)ccc4O)(C2)C3)N[C@H]1C(=O)NCCC(F)(F)F` (mixture of isomers) [Example 286], the IC50 came to 859 nM. For `CC1(C)N=C(C23CC(N(Cc4ccc(Cl)cc4)S(=O)(=O)C(C)(C)C)(C2)C3)N[C@H]1C(=O)NCCC(F)(F)F` (mixture of isomers) [Example 287] the value was 976 nM; for `C[C@@]1(C(=O)Nc2ccccc2)CN=C(C23CC(N(Cc4ccc(C(F)(F)F)cc4)S(=O)(=O)c4ccc(F)cc4)(C2)C3)N1` (mixture of isomers) [Example 288], 1020 nM.

In the case of `CC1(C)CC(CNC(=O)[C@@]2(C)CN=C(C34CC(N(Cc5ccc(C(F)(F)F)cc5)S(=O)(=O)c5ccc(F)cc5)(C3)C4)N2)C1` (mixture of isomers) [Example 289], the IC50 was 1060 nM. For `C[C@]1(C(=O)NCC2CCCCC2)CN=C(C23CC(N(Cc4ccc(C(F)(F)F)cc4)S(=O)(=O)c4ccc(F)cc4)(C2)C3)N1` (mixture of isomers) [Example 290] the value was 1060 nM; for `CC1(C)N=C(C23CC(N(Cc4ccc(Cl)cc4)S(=O)(=O)c4ncc[nH]4)(C2)C3)N[C@H]1C(=O)NCCC(F)(F)F` (mixture of isomers) [Example 291], 1120 nM; for `CC1(C)N=C(C23CC(N(Cc4ccc(Cl)cc4)S(=O)(=O)c4ccccc4C(N)=O)(C2)C3)N[C@H]1C(=O)NCCC(F)(F)F` (mixture of isomers) [Example 292], 2950 nM.

As for `C[C@]1(C(=O)Nc2ccccc2)CN=C(C23CC(N(Cc4ccc(C(F)(F)F)cc4)S(=O)(=O)c4ccc(F)cc4)(C2)C3)N1` (mixture of isomers) [Example 293], the IC50 came out at 4080 nM.

Take `CC1(C)N=C(C23CC(N(Cc4ccc(Cl)cc4)S(=O)(=O)CCO)(C2)C3)N[C@H]1C(=O)NCCC(F)(F)F` (mixture of isomers) [Example 294]: the 50% inhibitory concentration (IC50) was 10500 nM. For `CC1(C)N=C(C23CC(N(Cc4ccc(Cl)cc4)S(=O)(=O)c4ccc[nH]c4=O)(C2)C3)N[C@H]1C(=O)NCCC(F)(F)F` (mixture of isomers) [Example 295] the value was 21400 nM; for `CC1(C)N=C(C23CC(N(Cc4ccc(Cl)c(F)c4)S(=O)(=O)c4ccccc4)(C2)C3)N[C@H]1C(=O)NC12CC(C1)C2` [Example 1, (R)-N-(Bicyclo[1.1.1]pentan-1-yl)-2-(3-(N-(4-chloro-3-fluorobenzyl)phenylsulfonamido)bicyclo[1.1.1]pentan-1-yl)-4,4-dimethyl-4,5-dihydro-1H-imidazole-5-carboxamide], 35 nM.

Take `CC1(C)N=C(C23CC(N(Cc4ccc(Cl)c(Cl)c4)S(=O)(=O)c4ccccc4)(C2)C3)N[C@H]1C(=O)NCC(F)(F)C(F)(F)F` [Example 5]: the concentration for half-maximal inhibition (IC50) amounted to 138 nM. For the compound `CC1(C)N=C(C23CC(N(Cc4ccc(F)cc4)S(=O)(=O)c4ccccc4)(C2)C3)NC1C(=O)NCCC(F)(F)F` (stereo not drawn) [Example 97], the IC50 was 66 nM. Regarding `CC1(C)N=C(C23CC(N(Cc4ccc(C(F)(F)F)cc4)S(=O)(=O)c4ccc(F)cc4)(C2)C3)N[C@H]1C(=O)NCC1(F)CCC1` [Example 145], the half-maximal inhibitory concentration (IC50) turned out to be 88 nM.

For the compound `CC1(C)N=C(C23CC(N(Cc4ccc(Cl)cc4)S(=O)(=O)c4ccccc4)(C2)C3)NC1C(=O)NCCC(F)(F)F` (stereo not drawn) [Example 148], the IC50 is 89 nM. For `CC1(C)N=C(C23CC(N(Cc4ccc(C(F)(F)F)cc4)S(=O)(=O)c4ccc(F)cc4)(C2)C3)NC1C(=O)N1CCCCC1` (stereo not drawn) [Example 157] the value was 94 nM; for `CC1(C)N=C(C23CC(N(Cc4ccc(C(F)(F)F)cc4)S(=O)(=O)c4ccc(F)cc4)(C2)C3)NC1C(=O)NCC1CC1(F)F` (stereo not drawn) [Example 161], 98 nM. For `CC1(C)N=C(C23CC(N(Cc4ccc(C(F)(F)F)cc4)S(=O)(=O)c4ccc(F)cc4)(C2)C3)NC1C(=O)NCC1(C#N)CCC1` (stereo not drawn) [Example 164] the value was 99 nM. For `CCCC1(C(=O)NC(C)C)CN=C(C23CC(N(Cc4ccc(C(F)(F)F)cc4)S(=O)(=O)c4ccc(F)cc4)(C2)C3)N1` (stereo not drawn) [Example 182] the value was 108 nM. Regarding `CC1(C)N=C(C23CC(N(Cc4ccc(C(F)(F)F)cc4)S(=O)(=O)c4ccc(F)cc4)(C2)C3)NC1C(=O)NCC1CC(F)(F)C1` (stereo not drawn) [Example 186], the IC50 worked out at 110 nM.

As for `CC1(C)N=C(C23CC(N(Cc4ccc(C(F)(F)F)cc4)S(=O)(=O)c4ccc(F)cc4)(C2)C3)NC1C(=O)NCC1CCC1` (stereo not drawn) [Example 192], the half-inhibitory concentration (IC50) was found to be 115 nM.

For the compound `CC1(C)N=C(C23CC(N(Cc4ccc(C(F)(F)F)cc4)S(=O)(=O)c4ccc(F)cc4)(C2)C3)NC1C(=O)NCCC(F)(F)F` (stereo not drawn) [Example 193], the 50% inhibitory concentration (IC50) is 115 nM. For `CC(C)NC(=O)C1NC(C23CC(N(Cc4ccc(C(F)(F)F)cc4)S(=O)(=O)c4ccc(F)cc4)(C2)C3)=NC1(C)C` (stereo not drawn) [Example 208] the value was 143 nM; for `CC1(C)N=C(C23CC(N(Cc4ccc(C(F)(F)F)cc4)S(=O)(=O)c4ccccc4)(C2)C3)NC1C(=O)NCCC(F)(F)F` (stereo not drawn) [Example 220], 169 nM; for `O=C(NCCC(F)(F)F)[C@@H]1NC(C23CC(N(Cc4ccc(C(F)(F)F)cc4)S(=O)(=O)c4ccc(F)cc4)(C2)C3)=NC12CC2` [Example 224], 178 nM. `O=C(NCC1CCC1)C1NC(C23CC(N(Cc4ccc(C(F)(F)F)cc4)S(=O)(=O)c4ccc(F)cc4)(C2)C3)=NC12CCC2` (stereo not drawn) [Example 229]: the half-maximal inhibitory concentration (IC50) is 199 nM. For `CC1(NC(=O)C2NC(C34CC(N(Cc5ccc(C(F)(F)F)cc5)S(=O)(=O)c5ccc(F)cc5)(C3)C4)=NC2(C)C)CCC1` (stereo not drawn) [Example 232] the value was 208 nM. For `CC1(C)N=C(C23CC(N(Cc4ccc(C(F)(F)F)cc4)S(=O)(=O)c4ccc(F)cc4)(C2)C3)NC1C(=O)N1CCC(F)(F)CC1` (stereo not drawn) [Example 236] the value was 213 nM; for `COC1(CNC(=O)C2NC(C34CC(N(Cc5ccc(C(F)(F)F)cc5)S(=O)(=O)c5ccc(F)cc5)(C3)C4)=NC2(C)C)CCC1` (stereo not drawn) [Example 237], 217 nM; for `O=C(NCC1CCC1)C1NC(C23CC(N(Cc4ccc(C(F)(F)F)cc4)S(=O)(=O)c4ccc(F)cc4)(C2)C3)=NC12CC2` (stereo not drawn) [Example 239], 230 nM. For `NC(=O)C1(Cc2ccccc2)CN=C(C23CC(N(Cc4ccc(C(F)(F)F)cc4)S(=O)(=O)c4ccc(F)cc4)(C2)C3)N1` (stereo not drawn) [Example 263] the value was 400 nM; for `CC(C)C1(C(=O)NCC2CCC2)CN=C(C23CC(N(Cc4ccc(C(F)(F)F)cc4)S(=O)(=O)c4ccc(F)cc4)(C2)C3)N1` (stereo not drawn) [Example 266], 415 nM; for `CC1(C)N=C(C23CC(N(Cc4ccc(C(F)(F)F)cc4)S(=O)(=O)c4ccc(F)cc4)(C2)C3)NC1C(=O)NCC1(O)CCC1` (stereo not drawn) [Example 271], 494 nM.

`CCCC1(C(=O)NCC2CCC2)CN=C(C23CC(N(Cc4ccc(C(F)(F)F)cc4)S(=O)(=O)c4ccc(F)cc4)(C2)C3)N1` (stereo not drawn) [Example 273]: the IC50 came to 552 nM.

On to `CN(C)C(=O)[C@H]1CN=C(C23CC(N(Cc4ccc(C(F)(F)F)cc4)S(=O)(=O)c4ccc(F)cc4)(C2)C3)N1` [Example 277], for which the concentration for half-maximal inhibition (IC50) came out at 593 nM. In the case of `O=C(NCC1CCC1)C1(Cc2ccccc2)CN=C(C23CC(N(Cc4ccc(C(F)(F)F)cc4)S(=O)(=O)c4ccc(F)cc4)(C2)C3)N1` (stereo not drawn) [Example 279], the IC50 was 608 nM. With `CC([C@@H]1CN=C(C23CC(N(Cc4ccc(C(F)(F)F)cc4)S(=O)(=O)c4ccc(F)cc4)(C2)C3)N1)N(C)C` (stereo partly drawn) [Example 281], the IC50 was 632 nM. For `CC(C)CC1(C(=O)NCC2CCC2)CN=C(C23CC(N(Cc4ccc(C(F)(F)F)cc4)S(=O)(=O)c4ccc(F)cc4)(C2)C3)N1` (stereo not drawn) [Example 284] the value was 787 nM.
